Measured values from patent publication US20230085307A1, “PYRIDAZINONE COMPOUND AND HERBICIDE” (NISSAN CHEMICAL CORPORATION, priority 2019, published 2023).

Experiments:
Italian ryegrass [1] = assay: Test Example 4: herbicidal effect by soil treatment (Table 19, symbol K); assay type: in vivo, Italian ryegrass (Lolium multiflorum); conditions: amount of applied herbicide 320 g/ha
Method in brief: (§1)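 Step 1: sow seeds in sterilized diluvial soil, cover ~1.5 cm. Step 2: spray diluted emulsion onto soil surface at predetermined rate. Step 3: greenhouse, 25–30° C, three weeks. Step 4: grade effect on each plant by earlier criteria.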

barnyard grass [2] = assay: Test Example 5: herbicidal effect by foliage application, plastic box (Table 20, symbol H); assay type: in vivo, barnyard grass (Echinochloa crus-galli); conditions: foliage application, AAH 320 g/ha, evaluated three weeks after application
Method in brief: (§2)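 Foliar spray test: emulsion formulation diluted in water to a set application rate, sprayed onto 14-day-old plants raised in diluvial soil at 25° C to 30° C under glass. Both herbicidal effect and crop effect rated visually three weeks later.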

southern crabgrass [3] = assay: Test Example 5: herbicidal effect by foliage application, plastic box (Table 20, symbol F); assay type: in vivo, southern crabgrass (Digitaria ciliaris); conditions: foliage application, AAH 320 g/ha, evaluated three weeks after application
Method in brief: as §2

green foxtail [4] = assay: Test Example 4: herbicidal effect by soil treatment (Table 19, symbol G); assay type: in vivo, green foxtail (Setaria viridis); conditions: amount of applied herbicide 320 g/ha
Method in brief: as §1

oval-leafed pondweed = assay: Test Example 1: herbicidal activity, application before weed generation under submerged conditions (Table 16, symbol C); assay type: in vivo, oval-leafed pondweed (Monochoria vaginalis); conditions: 320 g/ha applied herbicide
Method in brief: (§3)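 Alluvial soil was flooded to 4 cm depth, weed seeds were sown mixed and 2.5-leaf rice seedlings were transplanted. On sowing day, the compound's emulsion, diluted in water to a set dose, was applied to the water surface. Plants grew at 25–30 °C and were scored 0–5 after three weeks.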

rice flat sedge = assay: Test Example 3: herbicidal effect by foliage application, Wagner pot (Table 18, symbol E); assay type: in vivo, rice flat sedge (Cyperus iria); conditions: amount of applied herbicide 320 g/ha
Method in brief: (§4)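 Plants were sown in alluvial soil held under 0.1–0.5 cm standing water and grown 14 days in a greenhouse at 25–30 °C. An emulsifiable formulation, water-diluted to the set dose, was then sprayed onto the foliage, and effects were scored three weeks later using previously defined criteria.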

barnyard grass [5] = assay: Test Example 4: herbicidal effect by soil treatment (Table 19, symbol H); assay type: in vivo, barnyard grass (Echinochloa crus-galli); conditions: amount of applied herbicide 320 g/ha
Method in brief: as §1

blackgrass [6] = assay: Test Example 4: herbicidal effect by soil treatment (Table 19, symbol J); assay type: in vivo, blackgrass (Alopecurus myosuroides); conditions: amount of applied herbicide 320 g/ha
Method in brief: as §1

southern crabgrass [7] = assay: Test Example 4: herbicidal effect by soil treatment (Table 19, symbol F); assay type: in vivo, southern crabgrass (Digitaria ciliaris); conditions: amount of applied herbicide 320 g/ha
Method in brief: as §1

barnyard grass [8] = assay: Test Example 3: herbicidal effect by foliage application, Wagner pot (Table 18, symbol H); assay type: in vivo, barnyard grass (Echinochloa crus-galli); conditions: amount of applied herbicide 320 g/ha
Method in brief: as §4

lambsquarters [9] = assay: Test Example 4: herbicidal effect by soil treatment (Table 19, symbol O); assay type: in vivo, lambsquarters (Chenopodium album); conditions: amount of applied herbicide 320 g/ha
Method in brief: as §1

green foxtail [10] = assay: Test Example 5: herbicidal effect by foliage application, plastic box (Table 20, symbol G); assay type: in vivo, green foxtail (Setaria viridis); conditions: foliage application, AAH 320 g/ha, evaluated three weeks after application
Method in brief: as §2

persian speedwell [11] = assay: Test Example 4: herbicidal effect by soil treatment (Table 19, symbol R); assay type: in vivo, Persian speedwell (Veronica persica); conditions: amount of applied herbicide 320 g/ha
Method in brief: as §1

wild oat [12] = assay: Test Example 5: herbicidal effect by foliage application, plastic box (Table 20, symbol I); assay type: in vivo, wild oat (Avena fatua); conditions: foliage application, AAH 320 g/ha, evaluated three weeks after application
Method in brief: as §2

persian speedwell [13] = assay: Test Example 5: herbicidal effect by foliage application, plastic box (Table 20, symbol R); assay type: in vivo, Persian speedwell (Veronica persica); conditions: foliage application, AAH 320 g/ha, evaluated three weeks after application
Method in brief: as §2

chickweed [14] = assay: Test Example 5: herbicidal effect by foliage application, plastic box (Table 20, symbol P); assay type: in vivo, common chickweed (Stellaria media); conditions: foliage application, AAH 320 g/ha, evaluated three weeks after application
Method in brief: as §2

velvetleaf [15] = assay: Test Example 5: herbicidal effect by foliage application, plastic box (Table 20, symbol M); assay type: in vivo, velvetleaf (Abutilon theophrasti); conditions: foliage application, AAH 320 g/ha, evaluated three weeks after application
Method in brief: as §2

blackgrass [16] = assay: Test Example 5: herbicidal effect by foliage application, plastic box (Table 20, symbol J); assay type: in vivo, blackgrass (Alopecurus myosuroides); conditions: foliage application, AAH 320 g/ha, evaluated three weeks after application
Method in brief: as §2

Chinese sprangletop = assay: Test Example 3: herbicidal effect by foliage application, Wagner pot (Table 18, symbol D); assay type: in vivo, chinese sprangletop (Leptochloa chinensis); conditions: amount of applied herbicide 320 g/ha
Method in brief: as §4

wild oat [17] = assay: Test Example 4: herbicidal effect by soil treatment (Table 19, symbol I); assay type: in vivo, wild oat (Avena fatua); conditions: amount of applied herbicide 320 g/ha
Method in brief: as §1

redroot pigweed [18] = assay: Test Example 5: herbicidal effect by foliage application, plastic box (Table 20, symbol N); assay type: in vivo, redroot pigweed (Amaranthus retroflexus); conditions: foliage application, AAH 320 g/ha, evaluated three weeks after application
Method in brief: as §2

Italian ryegrass [19] = assay: Test Example 5: herbicidal effect by foliage application, plastic box (Table 20, symbol K); assay type: in vivo, Italian ryegrass (Lolium multiflorum); conditions: foliage application, AAH 320 g/ha, evaluated three weeks after application
Method in brief: as §2

chickweed [20] = assay: Test Example 4: herbicidal effect by soil treatment (Table 19, symbol P); assay type: in vivo, common chickweed (Stellaria media); conditions: amount of applied herbicide 320 g/ha
Method in brief: as §1

Japanese bulrush = assay: Test Example 1: herbicidal activity, application before weed generation under submerged conditions (Table 16, symbol B); assay type: in vivo, Japanese bulrush (Schoenoplectus juncoides); conditions: 320 g/ha applied herbicide
Method in brief: as §3

windgrass [21] = assay: Test Example 4: herbicidal effect by soil treatment (Table 19, symbol L); assay type: in vivo, windgrass (Apera spica-venti); conditions: amount of applied herbicide 320 g/ha
Method in brief: as §1

redroot pigweed [22] = assay: Test Example 4: herbicidal effect by soil treatment (Table 19, symbol N); assay type: in vivo, redroot pigweed (Amaranthus retroflexus); conditions: amount of applied herbicide 320 g/ha
Method in brief: as §1

late watergrass = assay: Test Example 1: herbicidal activity, application before weed generation under submerged conditions (Table 16, symbol A); assay type: in vivo, late watergrass (Echinochloa oryzicola); conditions: 320 g/ha applied herbicide
Method in brief: as §3

velvetleaf [23] = assay: Test Example 4: herbicidal effect by soil treatment (Table 19, symbol M); assay type: in vivo, velvetleaf (Abutilon theophrasti); conditions: amount of applied herbicide 320 g/ha
Method in brief: as §1

lambsquarters [24] = assay: Test Example 5: herbicidal effect by foliage application, plastic box (Table 20, symbol O); assay type: in vivo, lambsquarters (Chenopodium album); conditions: foliage application, AAH 320 g/ha, evaluated three weeks after application
Method in brief: as §2

windgrass [25] = assay: Test Example 5: herbicidal effect by foliage application, plastic box (Table 20, symbol L); assay type: in vivo, windgrass (Apera spica-venti); conditions: foliage application, AAH 320 g/ha, evaluated three weeks after application
Method in brief: as §2

Compound | herbicidal effect on K: Italian ryegrass (Italian ryegrass [1]) | H: barnyard grass, herbicidal effect (criteria 0-5) (barnyard grass [2]) | F: southern crabgrass, herbicidal effect (criteria 0-5) (southern crabgrass [3]) | herbicidal effect on G: green foxtail (green foxtail [4]) | Herbicidal effect on C: oval-leafed pondweed (grade 0-5) (oval-leafed pondweed) | herbicidal effect on E: rice flat sedge (rice flat sedge) | herbicidal effect on H: barnyard grass (barnyard grass [5]) | herbicidal effect on J: blackgrass (blackgrass [6]) | herbicidal effect on F: southern crabgrass (southern crabgrass [7]) | herbicidal effect on H: barnyard grass (barnyard grass [8]) | herbicidal effect on O: lambsquarters (lambsquarters [9]) | G: green foxtail, herbicidal effect (criteria 0-5) (green foxtail [10]) | herbicidal effect on R: persian speedwell (persian speedwell [11]) | I: wild oat, herbicidal effect (criteria 0-5) (wild oat [12]) | R: persian speedwell, herbicidal effect (criteria 0-5) (persian speedwell [13]) | P: chickweed, herbicidal effect (criteria 0-5) (chickweed [14]) | M: velvetleaf, herbicidal effect (criteria 0-5) (velvetleaf [15]) | J: blackgrass, herbicidal effect (criteria 0-5) (blackgrass [16]) | herbicidal effect on D: Chinese sprangletop (Chinese sprangletop) | herbicidal effect on I: wild oat (wild oat [17]) | further results
Cc1nn(C)c(=O)c(-c2c(-c3ccc([S+](C)[O-])cc3)sc3ccc(F)cc23)c1O (stereo not drawn) [2-256] | 3 (Herbicidal rate of 40% or more and less than 70%) | 1 (Herbicidal rate of 5% or more and less than 20%) | 4 (Herbicidal rate of 70% or more and less than 90%) | 0 (Herbicidal rate of 5% or less (almost no effect)) | 0 (Herbicidal rate of 5% or less (almost no effect)) | 4 (Herbicidal rate of 70% or more and less than 90%) | 0 (Herbicidal rate of 5% or less (almost no effect)) | 0 (Herbicidal rate of 5% or less (almost no effect)) | 0 (Herbicidal rate of 5% or less (almost no effect)) | 5 (Herbicidal rate of 90% or more (almost completely withered)) | 0 (Herbicidal rate of 5% or less (almost no effect)) | 3 (Herbicidal rate of 40% or more and less than 70%) | 4 (Herbicidal rate of 70% or more and less than 90%) | 5 (Herbicidal rate of 90% or more (almost completely withered)) | 5 (Herbicidal rate of 90% or more (almost completely withered)) | 5 (Herbicidal rate of 90% or more (almost completely withered)) | 4 (Herbicidal rate of 70% or more and less than 90%) | 3 (Herbicidal rate of 40% or more and less than 70%) | 4 (Herbicidal rate of 70% or more and less than 90%) | 1 (Herbicidal rate of 5% or more and less than 20%) | N: redroot pigweed, herbicidal effect (criteria 0-5) (redroot pigweed [18]): 5 (Herbicidal rate of 90% or more (almost completely withered)); K: Italian ryegrass, herbicidal effect (criteria 0-5) (Italian ryegrass [19]): 5 (Herbicidal rate of 90% or more (almost completely withered)); herbicidal effect on P: chickweed (chickweed [20]): 3 (Herbicidal rate of 40% or more and less than 70%); Herbicidal effect on B: Japanese bulrush (grade 0-5) (Japanese bulrush): 0 (Herbicidal rate of 5% or less (almost no effect)); herbicidal effect on L: windgrass (windgrass [21]): 0 (Herbicidal rate of 5% or less (almost no effect)); herbicidal effect on N: redroot pigweed (redroot pigweed [22]): 3 (Herbicidal rate of 40% or more and less than 70%); Herbicidal effect on A: late watergrass (grade 0-5) (late watergrass): 2 (Herbicidal rate of 20% or more and less than 40%); herbicidal effect on M: velvetleaf (velvetleaf [23]): 0 (Herbicidal rate of 5% or less (almost no effect)); O: lambsquarters, herbicidal effect (criteria 0-5) (lambsquarters [24]): 5 (Herbicidal rate of 90% or more (almost completely withered)); L: windgrass, herbicidal effect (criteria 0-5) (windgrass [25]): 5 (Herbicidal rate of 90% or more (almost completely withered))
CSCc1ccc(-c2sc3ccc(F)cc3c2-c2c(O)c(C)nn(C)c2=O)cc1 [2-317] | 4 (Herbicidal rate of 70% or more and less than 90%) | 5 (Herbicidal rate of 90% or more (almost completely withered)) | 5 (Herbicidal rate of 90% or more (almost completely withered)) | 4 (Herbicidal rate of 70% or more and less than 90%) | 0 (Herbicidal rate of 5% or less (almost no effect)) | 5 (Herbicidal rate of 90% or more (almost completely withered)) | 5 (Herbicidal rate of 90% or more (almost completely withered)) | 1 (Herbicidal rate of 5% or more and less than 20%) | 4 (Herbicidal rate of 70% or more and less than 90%) | 5 (Herbicidal rate of 90% or more (almost completely withered)) | 5 (Herbicidal rate of 90% or more (almost completely withered)) | 5 (Herbicidal rate of 90% or more (almost completely withered)) | 3 (Herbicidal rate of 40% or more and less than 70%) | 5 (Herbicidal rate of 90% or more (almost completely withered)) | 5 (Herbicidal rate of 90% or more (almost completely withered)) | 5 (Herbicidal rate of 90% or more (almost completely withered)) | 5 (Herbicidal rate of 90% or more (almost completely withered)) | 4 (Herbicidal rate of 70% or more and less than 90%) | 2 (Herbicidal rate of 20% or more and less than 40%) | 0 (Herbicidal rate of 5% or less (almost no effect)) | N: redroot pigweed, herbicidal effect (criteria 0-5) (redroot pigweed [18]): 5 (Herbicidal rate of 90% or more (almost completely withered)); K: Italian ryegrass, herbicidal effect (criteria 0-5) (Italian ryegrass [19]): 5 (Herbicidal rate of 90% or more (almost completely withered)); herbicidal effect on P: chickweed (chickweed [20]): 0 (Herbicidal rate of 5% or less (almost no effect)); Herbicidal effect on B: Japanese bulrush (grade 0-5) (Japanese bulrush): 0 (Herbicidal rate of 5% or less (almost no effect)); herbicidal effect on L: windgrass (windgrass [21]): 0 (Herbicidal rate of 5% or less (almost no effect)); herbicidal effect on N: redroot pigweed (redroot pigweed [22]): 5 (Herbicidal rate of 90% or more (almost completely withered)); Herbicidal effect on A: late watergrass (grade 0-5) (late watergrass): 3 (Herbicidal rate of 40% or more and less than 70%); herbicidal effect on M: velvetleaf (velvetleaf [23]): 4 (Herbicidal rate of 70% or more and less than 90%); O: lambsquarters, herbicidal effect (criteria 0-5) (lambsquarters [24]): 5 (Herbicidal rate of 90% or more (almost completely withered)); L: windgrass, herbicidal effect (criteria 0-5) (windgrass [25]): 5 (Herbicidal rate of 90% or more (almost completely withered))
